Experimental data: patent US20230024521A1, “JAK INHIBITORS” (Vimalan Biosciences, Inc., priority 2019, published 2023)
Like-named read-outs stand apart in the source and are kept apart here.

How the values were obtained:
JAK3 = molecular target: T1, JAK3 (Homo sapiens, UniProt P52333); assay: JAK/TYK2 assay (Kinase Glo luminescence): Jak3 kinase assay; format: biochemical; details: 1.5 nM enzyme, 2 uM ATP, 4 uM pEY, 1 hr; read-out: Jak3 kinase assay: IC50 Geomean
T1 sequence (P52333 1-1124): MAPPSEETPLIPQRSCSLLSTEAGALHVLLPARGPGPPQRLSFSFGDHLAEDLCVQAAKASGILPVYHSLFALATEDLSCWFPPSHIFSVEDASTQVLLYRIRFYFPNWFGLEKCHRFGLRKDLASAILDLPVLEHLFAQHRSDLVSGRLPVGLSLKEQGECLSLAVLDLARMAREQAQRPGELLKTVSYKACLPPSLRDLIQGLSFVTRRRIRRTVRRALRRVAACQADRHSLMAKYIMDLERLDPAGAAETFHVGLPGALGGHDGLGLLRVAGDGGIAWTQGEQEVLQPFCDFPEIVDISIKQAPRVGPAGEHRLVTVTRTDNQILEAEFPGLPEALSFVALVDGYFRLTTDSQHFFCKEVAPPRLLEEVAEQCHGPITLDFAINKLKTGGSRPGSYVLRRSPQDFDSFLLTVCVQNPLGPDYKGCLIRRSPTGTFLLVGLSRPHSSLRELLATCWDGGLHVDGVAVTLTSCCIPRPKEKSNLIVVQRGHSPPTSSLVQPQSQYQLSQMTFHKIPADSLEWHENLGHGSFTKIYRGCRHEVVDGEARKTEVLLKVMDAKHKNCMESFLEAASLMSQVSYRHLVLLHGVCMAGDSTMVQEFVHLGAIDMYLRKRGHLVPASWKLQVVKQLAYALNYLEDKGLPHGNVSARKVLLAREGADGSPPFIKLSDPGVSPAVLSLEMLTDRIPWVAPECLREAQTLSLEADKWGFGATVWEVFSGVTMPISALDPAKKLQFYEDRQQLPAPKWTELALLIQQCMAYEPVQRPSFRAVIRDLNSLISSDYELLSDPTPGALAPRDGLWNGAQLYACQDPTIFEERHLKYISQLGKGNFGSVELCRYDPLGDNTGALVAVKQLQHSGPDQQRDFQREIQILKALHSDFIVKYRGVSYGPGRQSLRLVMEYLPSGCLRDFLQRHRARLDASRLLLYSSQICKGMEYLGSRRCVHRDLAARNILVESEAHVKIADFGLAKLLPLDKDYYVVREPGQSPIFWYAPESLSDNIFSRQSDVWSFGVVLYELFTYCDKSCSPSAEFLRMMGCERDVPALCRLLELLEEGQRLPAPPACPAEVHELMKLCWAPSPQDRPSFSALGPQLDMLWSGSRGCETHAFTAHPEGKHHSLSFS
Protocol: Example A: JAK/TYK2 Assay 10 mM test compound stock or 1 mM control compound stock (tofocitinib, ruxolitinib or staurosporine) in DMSO was diluted to 0.4 mM in DMSO. A 3-fold series dilution was then performed in DMSO to generate 10 different compound concentrations. The assay was carried out in 384-well white plate. 0.5 μL of 40× compound DMSO solution at different concentrations was mixed with 10 uL 2× enzyme prepared in reaction buffer (20 mM HEPES, 10 mM MgCl2, 0.01% Tween, 1 mM DTT, pH 7.5). 10 uL 2× substrate mixture prepared in reaction buffer was then added to start the reaction. A short spin was done to settle down all solutions to the bottom of the plate. Final concentrations of test compound in the reaction mixture were 10000, 3333, 1111, 370, 123, 41.2, 13.7, 4.57, 1.52 and 0.51 nM, Concentrations of control compound were ten times less. Enzymatic reaction was conducted at 25° C. for 1-2 hours. 10 uL of Kinase Glo Reagents was added to stop the reaction and generate the luminescent signal which was measured using Envision. Luminescence signal was inversely related to kinase activity. […] The mixture without any compound was the positive control. [table]

[1] = tested on: JAK1/JAK3: IL-2 stimulated STAT5 phosphorylation; assay: JAK1/JAK3: IL-2 stimulated STAT5 phosphorylation in PBMCs; format: cell-based, human; details: PBMC
Protocol: Example B: JAK1/JAK3: IL-2 Stimulated STAT5 Phosphorylation in PBMCs
Human PBMCs: (Precision Biomedicine)
Thaw as per instructions. Thaw frozen PBMCs in 37° C. water bath. Transfer cell suspension to 9 mL of pre-warmed complete media (RPMI+10% FBS+L-Glu+Pen/Strep). Centrifuge at 400×g for 5 min and wash cells with 10 mL of complete media. Resuspend pellet for a cell-count of 3×10^6 cells/mL
Seed cells into 96-deep well at 80 uL/well based on experimental plate layout. Add 10 μL of (10× conc.) of different concentrations of compounds to all wells except controls (unstimulated) and mix it with 200 uL multichannel pipet. Add 10 uL of complete RPMI media with same % DMSO in controls. For dilution of compounds and dilution range please refer to appendix. Incubate in 5% CO2 incubator for 1 hour at 37° C. Add 10 μL of (10× conc.) IL-2 (final conc. 50 ng/mL) to each well except unstimulated and unstained controls and incubate further for 20 minutes in water bath at 37° C.
Add 900 μL of prewarmed 1× Fix/Lyse solution (Appendix) and mix it properly using 1000 μL multichannel pipet; incubate further on water bath at 37° C. for 10 minutes. Centrifuge at 800×g for 5 minutes, remove 900 uL of supernatant, and add 1000 μL of freshly prepared wash buffer or 1× PBS. Centrifuge at 800×g for 5 minutes, remove 900 μL of supernatant, and resuspend the pellet in remaining buffer.
Disrupt the pellet by gentle tapping and add 1000 μL of ice cold BD Phosflow Perm Buffer III and incubate further on ice for 30 minutes. Centrifuge at 800×g for 5 minutes. Wash two more times with 1000 μL of BD Stain buffer, remove supernatant except 100 uL of buffer after the last wash.
Disrupt the pellet by gentle tapping, add 100 uL of stain buffer and 5 μL of pSTAT5_Alex488 […] in all appropriate wells and mix properly using 200 μL multichannel pipet. Incubate plate overnight at […]. Add 900 μL of BD stain buffer and centrifuge at 800×g for 5 minutes. Wash one additional time with 1000 μL of buffer. Finally resuspend the pellet in 300 uL of BD stain buffer.
Transfer the cells to 96-well v-bottom plate and acquire the cells in Beckman Coulter Cytoflex. Acquiring cells in Flow Cytometer: Keep the threshold value to 250. Acquire at least 8,000-10,000 cells.
RPMI 1640 Complete Medium: RPMI 1640 media+10% FBS.
Cytokine dilution: 1) IL-2 Stock at 100 ug/mL. Prepare a 0.5 ug/mL dilution by adding 5 uL of stock into 995 uL of cRPMI. Keep it on ice until used.
Lyse/Fix buffer preparation: Dilute 5× Lyse/Fix buffer to 1× using MQ water and keep at 37° C. until used.
BD Phosflow perm buffer III: Keep on ice/fridge

[2] = human PBMCs, IL-2 50 ng/mL, pSTAT5 by flow cytometry, read-out: IL-2/J1J3/pS5: IC50 GeoMean
[3] = Homo sapiens, read-out: IL-2/J1J3/pS5: IC50 GeoMean (nM)

SMILES: CC[C@H](Cn1ccc2cnc(Nc3cnn(CC(N)=O)c3)nc21)C(C)C [Example 1, (S)-2-(4-((7-(2-ethyl-3-methylbutyl)-7H-pyrrolo[2,3-d]pyrimidin-2-yl)amino)-1H-pyrazol-1-yl) acetamide]
- IC50 (JAK3): < 100 nM
- IC50 [1, 2]: < 100 nM

SMILES: CC[C@H](Cn1ccc2cnc(Nc3cnn(CC(=O)N4CCOC4=O)c3)nc21)C(C)C [Example 3, (5)-3-(2-(4-((7-(2-ethyl-3-methylbutyl)-7H-pyrrolo[2,3-d]pyrimidin-2-yl)amino)-1H-pyrazol-1-yl)acetyl) oxazolidin-2-one]
- IC50 (JAK3): < 100 nM
- IC50 [1, 3]: < 100 nM

SMILES: CCC(CC)Cn1ccc2cnc(Nc3cnn(CC(N)=O)c3)nc21 [Example 7, 2-(4-((7-(2-ethylbutyl)-7H-pyrrolo[2,3-d]pyrimidin-2-yl)amino)-1H-pyrazol-1-yl) acetamide]
- IC50 (JAK3): < 100 nM
- IC50 [1, 2]: < 100 nM

SMILES: CC[C@@H](Cn1ccc2cnc(Nc3cnn(C4CCNC4=O)c3)nc21)C(C)C (some centres unmarked) [Example 8]
- IC50 (JAK3): < 100 nM
- IC50 [1, 3]: < 100 nM
